Here are results for 23 compounds from US7517874B2 (priority 2007, dated 2009).

The target in assay [1] is human CB1 receptor (hCB1) (Homo sapiens, UniProt P21554). The assay can be described thus: cell-based. The class given is cell-based. The method, boiled down:
(§1)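 First, cells in IBMX-containing HEPES-buffered HBSS are raised to elevated cAMP with 2-8 μM NKH-477 for 30 min. Data are normalised to the forskolin and forskolin + 1 μM CP55,940 controls.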

For another assay, the target named is T1, rat CB2 receptor (rCB2) (Rattus norvegicus, UniProt Q9QZN9).
T1 sequence (Q9QZN9 1-360): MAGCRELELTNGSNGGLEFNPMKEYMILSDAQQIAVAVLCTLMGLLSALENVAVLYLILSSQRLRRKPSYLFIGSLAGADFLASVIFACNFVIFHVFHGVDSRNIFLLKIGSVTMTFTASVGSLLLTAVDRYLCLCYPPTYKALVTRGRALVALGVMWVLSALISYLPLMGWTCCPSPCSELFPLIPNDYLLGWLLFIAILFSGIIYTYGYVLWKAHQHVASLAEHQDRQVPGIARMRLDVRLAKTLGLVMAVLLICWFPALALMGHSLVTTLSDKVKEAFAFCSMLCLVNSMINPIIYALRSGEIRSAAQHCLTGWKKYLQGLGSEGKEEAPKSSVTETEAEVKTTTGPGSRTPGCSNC
The assay can be described thus: cell-based. The class given is cell-based. Particulars: for +/− RCB2: agonist or inverse agonist at rCB2. In outline:
as §1

Chain of human CB1 receptor (hCB1) (P21554 whole entry): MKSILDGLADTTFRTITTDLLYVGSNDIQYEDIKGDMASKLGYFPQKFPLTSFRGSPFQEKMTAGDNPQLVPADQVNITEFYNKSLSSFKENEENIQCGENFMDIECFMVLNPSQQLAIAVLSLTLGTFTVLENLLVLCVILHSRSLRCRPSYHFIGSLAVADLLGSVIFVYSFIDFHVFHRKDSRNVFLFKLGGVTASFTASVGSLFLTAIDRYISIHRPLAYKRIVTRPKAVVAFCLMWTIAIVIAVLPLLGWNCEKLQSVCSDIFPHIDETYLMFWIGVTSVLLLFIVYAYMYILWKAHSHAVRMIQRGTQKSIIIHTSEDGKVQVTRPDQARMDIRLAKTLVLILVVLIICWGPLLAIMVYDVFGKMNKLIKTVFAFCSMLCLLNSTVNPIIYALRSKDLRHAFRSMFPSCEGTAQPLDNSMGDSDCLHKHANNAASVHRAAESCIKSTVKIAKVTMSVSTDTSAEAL

Compound `CNC(=O)[C@@H](NC(=O)c1nc(Cc2ccccc2)n2c1CN(C)CCC2)C(C)(C)C` [Compound 459, (S)-3-benzyl-N-(3,3-dimethyl-1-(methylamino)-1-oxobutan-2-yl)-8-methyl-6,7,8,9-tetrahydro-5H-imidazo[1,5-a][1,4]diazepine-1-carboxamide] returned an EC50 in assay [1] of over 10 µM. Further, the “+/− RCB2” value at rat CB2 receptor (rCB2) is given as “+”.

As to `CNC(=O)[C@@H](NC(=O)c1nc(C2=CCNCC2)n2c1CN(C)CCC2)C(C)(C)C` [Compound 460, (S)-N-(3,3-dimethyl-1-(methylamino)-1-oxobutan-2-yl)-8-methyl-3-(1,2,3,6-tetrahydropyridin-4-yl)-6,7,8,9-tetrahydro-5H-imidazo[1,5-a][1,4]diazepine-1-carboxamide], the “+/− HCB1” value in assay [1] (agonist or inverse agonist at hCB1) is “+”. In addition, the “+/− RCB2” value at rat CB2 receptor (rCB2) was “+”.

`CCS(=O)(=O)N1CCCn2c(-c3ccccc3)nc(C(=O)N[C@H](C(=O)NC)C(C)(C)C)c2C1` [Compound 461, (S)-N-(3,3-dimethyl-1-(methylamino)-1-oxobutan-2-yl)-8-(ethylsulfonyl)-3-phenyl-6,7,8,9-tetrahydro-5H-imidazo[1,5-a][1,4]diazepine-1-carboxamide] registered an EC50 in assay [1] of over 10 µM. Further, on rat CB2 receptor (rCB2), the “+/− RCB2” value was “−”.

Take `CNC(=O)[C@@H](NC(=O)c1nc(-c2ccccc2)n2c1CN(C(=O)c1ccccc1)CCC2)C(C)(C)C` [Compound 462, (S)-8-benzoyl-N-(3,3-dimethyl-1-(methylamino)-1-oxobutan-2-yl)-3-phenyl-6,7,8,9-tetrahydro-5H-imidazo[1,5-a][1,4]diazepine-1-carboxamide]: the half-maximal effective concentration (EC50) (in assay [1]; on rat CB2 receptor (rCB2)) was over 10 µM in each case.

In the case of `CNC(=O)[C@@H](NC(=O)c1nc(-c2ccccc2)n2c1CN(C(C)=O)CCC2)C(C)(C)C` [Compound 463, (S)-8-acetyl-N-(3,3-dimethyl-1-(methylamino)-1-oxobutan-2-yl)-3-phenyl-6,7,8,9-tetrahydro-5H-imidazo[1,5-a][1,4]diazepine-1-carboxamide], the EC50 in assay [1] was over 10 µM. In addition, the “+/− RCB2” value on rat CB2 receptor (rCB2) is listed as “+”.

In turn, `CNC(=O)[C@@H](NC(=O)c1nc(-c2ccccc2)n2c1CN(S(=O)(=O)c1ccc(F)cc1)CCC2)C(C)(C)C` [Compound 464, (S)-N-(3,3-dimethyl-1-(methylamino)-1-oxobutan-2-yl)-8-(4-fluorophenylsulfonyl)-3-phenyl-6,7,8,9-tetrahydro-5H-imidazo[1,5-a][1,4]diazepine-1-carboxamide] came in with an EC50 in assay [1] of over 10 µM. Moreover, at rat CB2 receptor (rCB2), the “+/− RCB2” value is recorded as “−”.

The compound `COC(=O)[C@@H](NC(=O)c1nc(-c2ccccc2)n2c1CNCCC2)C(C)(C)C` [Compound 465, (S)-methyl 3,3-dimethyl-2-(3-phenyl-6,7,8,9-tetrahydro-5H-imidazo[1,5-a][1,4]diazepine-1-carboxamido)butanoate] registered an EC50 in assay [1] of over 10 µM. Also, the “+/− RCB2” value at rat CB2 receptor (rCB2) is reported as “+”.

Regarding `COC(=O)[C@@H](NC(=O)c1nc(-c2ccc(C)cc2F)n2c1CNCCC2)C(C)(C)C` [Compound 466], the 50% effective concentration (EC50) in assay [1] was over 10 µM. Further, at rat CB2 receptor (rCB2), the “+/− RCB2” value is recorded as “−”.

On to `COC(=O)[C@@H](NC(=O)c1nc(-c2ccccc2)n2c1CN(C)CCC2)C(C)(C)C` [Compound 467, (S)-methyl 3,3-dimethyl-2-(8-methyl-3-phenyl-6,7,8,9-tetrahydro-5H-imidazo[1,5-a][1,4]diazepine-1-carboxamido)butanoate], for which the half-maximal effective concentration (EC50) in assay [1] is over 10 µM. The “+/− RCB2” value at rat CB2 receptor (rCB2) was “+”.

In the case of `COC(=O)[C@@H](NC(=O)c1nc(-c2ccccc2)n2c1CN(C(C)C)CCC2)C(C)(C)C` [Compound 468, (S)-methyl 2-(8-isopropyl-3-phenyl-6,7,8,9-tetrahydro-5H-imidazo[1,5-a][1,4]diazepine-1-carboxamido)-3,3-dimethylbutanoate], the concentration for a half-maximal effect (EC50) in assay [1] was over 10 µM. The “+/− RCB2” value on rat CB2 receptor (rCB2) is given as “−”.

Turning to `COC(=O)[C@@H](NC(=O)c1nc(-c2ccc(C)cc2F)n2c1CN(C)CCC2)C(C)(C)C` [Compound 469, (S)-methyl 2-(3-(2-fluoro-4-methylphenyl)-8-methyl-6,7,8,9-tetrahydro-5H-imidazo[1,5-a][1,4]diazepine-1-carboxamido)-3,3-dimethylbutanoate], the EC50 (in assay [1]; on rat CB2 receptor (rCB2)) was over 10 µM each time.

`COC(=O)[C@@H](NC(=O)c1nc(-c2ccc(C)cc2F)n2c1CN(CC1CC1)CCC2)C(C)(C)C` [Compound 470, (S)-methyl 2-(8-(cyclopropylmethyl)-3-(2-fluoro-4-methylphenyl)-6,7,8,9-tetrahydro-5H-imidazo[1,5-a][1,4]diazepine-1-carboxamido)-3,3-dimethylbutanoate] returned a concentration giving a half-maximal response (EC50) in assay [1] of over 10 µM. Besides, on rat CB2 receptor (rCB2), the “+/− RCB2” value is listed as “−”.

As to `CN1CCCn2c(-c3ccccc3)nc(C(=O)N[C@H](C(=O)O)C(C)(C)C)c2C1` [Compound 471, (S)-3,3-dimethyl-2-(8-methyl-3-phenyl-6,7,8,9-tetrahydro-5H-imidazo[1,5-a][1,4]diazepine-1-carboxamido)butanoic acid], the half-maximal effective concentration (EC50) (in assay [1]; at rat CB2 receptor (rCB2)) was over 10 µM throughout.

As for `CC(C)NC(=O)[C@@H](NC(=O)c1nc(-c2ccccc2)n2c1CN(C)CCC2)C(C)(C)C` [Compound 472, (S)-N-(1-(isopropylamino)-3,3-dimethyl-1-oxobutan-2-yl)-8-methyl-3-phenyl-6,7,8,9-tetrahydro-5H-imidazo[1,5-a][1,4]diazepine-1-carboxamide], the EC50 in assay [1] is over 10 µM. Besides, the “+/− RCB2” value at rat CB2 receptor (rCB2) is given as “+”.

In assay [1], `CCCNC(=O)[C@@H](NC(=O)c1nc(-c2ccccc2)n2c1CN(C)CCC2)C(C)(C)C` [Compound 473, (S)-N-(3,3-dimethyl-1-oxo-1-(propylamino)butan-2-yl)-8-methyl-3-phenyl-6,7,8,9-tetrahydro-5H-imidazo[1,5-a][1,4]diazepine-1-carboxamide] displayed an EC50 of over 10 µM. Further, the “+/− RCB2” value at rat CB2 receptor (rCB2) is “+”.

In assay [1], `CC(C)CNC(=O)[C@@H](NC(=O)c1nc(-c2ccccc2)n2c1CN(C)CCC2)C(C)(C)C` [Compound 474, (S)-N-(1-(isobutylamino)-3,3-dimethyl-1-oxobutan-2-yl)-8-methyl-3-phenyl-6,7,8,9-tetrahydro-5H-imidazo[1,5-a][1,4]diazepine-1-carboxamide] showed a concentration for a half-maximal effect (EC50) of over 10 µM. In addition, the “+/− RCB2” value on rat CB2 receptor (rCB2) is reported as “+”.

`COCCNC(=O)[C@@H](NC(=O)c1nc(-c2ccccc2)n2c1CN(C)CCC2)C(C)(C)C` [Compound 475, (S)-N-(1-(2-methoxyethylamino)-3,3-dimethyl-1-oxobutan-2-yl)-8-methyl-3-phenyl-6,7,8,9-tetrahydro-5H-imidazo[1,5-a][1,4]diazepine-1-carboxamide] displayed an EC50 in assay [1] of over 10 µM. Further, the “+/− RCB2” value at rat CB2 receptor (rCB2) was “+”.

Regarding `CN1CCCn2c(-c3ccccc3)nc(C(=O)N[C@H](C(=O)NCCF)C(C)(C)C)c2C1` [Compound 476, (S)-N-(1-(2-fluoroethylamino)-3,3-dimethyl-1-oxobutan-2-yl)-8-methyl-3-phenyl-6,7,8,9-tetrahydro-5H-imidazo[1,5-a][1,4]diazepine-1-carboxamide], the EC50 in assay [1] is over 10 µM. In addition, at rat CB2 receptor (rCB2), the “+/− RCB2” value is on record as “+”.

In turn, `CN1CCCn2c(-c3ccccc3)nc(C(=O)N[C@H](C(=O)NC3CC3)C(C)(C)C)c2C1` [Compound 477, (S)-N-(1-(cyclopropylamino)-3,3-dimethyl-1-oxobutan-2-yl)-8-methyl-3-phenyl-6,7,8,9-tetrahydro-5H-imidazo[1,5-a][1,4]diazepine-1-carboxamide] had an EC50 in assay [1] of over 10 µM. Further, at rat CB2 receptor (rCB2), the “+/− RCB2” value was “+”.

`CCNC(=O)[C@@H](NC(=O)c1nc(-c2ccccc2)n2c1CN(C)CCC2)C(C)(C)C` [Compound 478, (S)-N-(1-(ethylamino)-3,3-dimethyl-1-oxobutan-2-yl)-8-methyl-3-phenyl-6,7,8,9-tetrahydro-5H-imidazo[1,5-a][1,4]diazepine-1-carboxamide] returned an EC50 in assay [1] of over 10 µM. At rat CB2 receptor (rCB2), the “+/− RCB2” value is listed as “+”.

`CN1CCCn2c(-c3ccccc3)nc(C(=O)N[C@H](C(=O)NCC3CCOCC3)C(C)(C)C)c2C1` [Compound 479, (S)-N-(3,3-dimethyl-1-oxo-1-((tetrahydro-2H-pyran-4-yl)methylamino)butan-2-yl)-8-methyl-3-phenyl-6,7,8,9-tetrahydro-5H-imidazo[1,5-a][1,4]diazepine-1-carboxamide]: the concentration for a half-maximal effect (EC50) in assay [1] was over 10 µM. In addition, the “+/− RCB2” value on rat CB2 receptor (rCB2) is “+”.

As to `CN1CCCn2c(-c3ccccc3)nc(C(=O)N[C@H](C(=O)NC3CCC3)C(C)(C)C)c2C1` [Compound 480, (S)-N-(1-(cyclobutylamino)-3,3-dimethyl-1-oxobutan-2-yl)-8-methyl-3-phenyl-6,7,8,9-tetrahydro-5H-imidazo[1,5-a][1,4]diazepine-1-carboxamide], the EC50 (in assay [1]; on rat CB2 receptor (rCB2)) was over 10 µM throughout.

With `CNC(=O)[C@@H](NC(=O)c1nc(-c2ccccc2)n2c1C[N+](C)(C)CCC2)C(C)(C)C` [Compound 481, (S)-1-(3,3-dimethyl-1-(methylamino)-1-oxobutan-2-ylcarbamoyl)-8,8-dimethyl-3-phenyl-6,7,8,9-tetrahydro-5H-imidazo[1,5-a][1,4]diazepin-8-ium], the EC50 (in assay [1]; at rat CB2 receptor (rCB2)) was over 10 µM in each case.

A word on the EC50: it is the concentration at which the effect is half-maximal. Read a low EC50 as greater potency.
